Experimental data as given in the supplement of paper PMC10331698.
± gives the standard deviation of the averaged measurements.

Columns and labels:
Experiment in all cases: level (log10 ratio to DMSO vehicle control); higher = higher biomarker level / cell amount than vehicle control
Conditions in all cases: in DMSO
[1] = compound: C=C(C)C(=O)OCCC(F)(F)C(F)(F)C(F)(F)C(F)(F)C(F)(C(F)(F)F)C(F)(F)F [(Perfluoro-5-methylhexyl)ethyl 2-methylprop-2-enoate]
Procedure: (§1)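 BioMAP Diversity Plus panel of 12 human primary cell co-culture systems (3C, 4H, LPS, SAg, BT, BF4T, BE3C, CASM3C, HDF3CGF, KF3CT, MyoF, Mphg). Compounds were added 1 h before stimulation and left for 24 h (MyoF 48 h; BT 72 h for soluble read-outs or 6 d for IgG). Biomarkers were read by ELISA, cytotoxicity by SRB, PBMC viability and proliferation by Alamar Blue. Each well value was divided by the mean of 8 DMSO control wells on the same plate and log10 transformed; duplicate blinded samples were tested at 4 concentrations.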

[2] = compound: C=CC(=O)OCC(F)(F)C(F)(F)C(F)(F)C(F)(F)C(F)(F)C(F)(F)C(F)(F)F [1H,1H-Perfluorooctyl acrylate]
Procedure: as §1

[3] = compound: C=CC(F)(F)C(F)(F)C(F)(F)C(F)(F)C(F)(F)C(F)(F)C(F)(F)C(F)(F)C=C [1,8-Divinylperfluorooctane]
Procedure: as §1

[4] = compound: NC(=O)C(F)(F)C(F)(F)F [Pentafluoropropionamide]
Procedure: as §1

[5] = compound: O=C(O)C(F)(F)C(F)(F)C(F)(F)C(F)(F)C(F)(F)C(F)(F)C(F)(F)C(F)F [9-H-Perfluorononanoic acid]
Procedure: as §1

[6] = compound: O=C(O)C(F)(F)OC(F)(F)C(F)(F)OC(F)(F)C(=O)O [Perfluoro-3,6-dioxaoctane-1,8-dioic acid]
Procedure: as §1

[7] = compound: O=S(=O)(O)C(F)(F)C(F)(F)C(F)(F)C(F)(F)C(F)(F)C(F)(F)F [Perfluorohexanesulfonic acid]
Procedure: as §1

Test System	level (log10) ([1]; 6700 nM)	level (log10) ([1]; 20000 nM)	level (log10) ([2]; 6700 nM)	level (log10) ([2]; 20000 nM)	level (log10) ([2]; 60000 nM)	level (log10) ([3]; 6700 nM)	level (log10) ([3]; 20000 nM)	level (log10) ([4]; 6700 nM)	level (log10) ([4]; 20000 nM)	level (log10) ([4]; 60000 nM)	level (log10) ([5]; 6700 nM)	level (log10) ([5]; 20000 nM)	level (log10) ([5]; 60000 nM)	level (log10) ([6]; 6700 nM)	level (log10) ([6]; 20000 nM)	level (log10) ([6]; 60000 nM)	level (log10) ([7]; 6700 nM)	level (log10) ([7]; 20000 nM)	level (log10) ([7]; 60000 nM)
HDF3CGF:CXCL10/IP-10	-0.0005 ± 0.0078	-0.003	-0.001 ± 0.0057	-0.0455 ± 0.022	-0.047	0.0205 ± 0.035	0.017 ± 0.035	-0.0075 ± 0.022	-0.009 ± 0.011	0.006 ± 0.04	-0.0535 ± 0.016	-0.023 ± 0.02	-0.052 ± 0.017	0.0105 ± 0.023	-0.004 ± 0.011	-0.0085 ± 0.023	0.0035 ± 0.0064	0.0015 ± 0.021	-0.0135 ± 0.012
MyoF:Collagen III	-0.0135 ± 0.052	-0.0455 ± 0.04	0.0005 ± 0.013	-0.007 ± 0.024	-0.0055 ± 0.021	-0.02 ± 0.0071	-0.0115 ± 0.012	0.002 ± 0.031	-0.005 ± 0.0014	-0.007 ± 0.0057	-0.002 ± 0.0085	-0.003 ± 0.0042	-0.026 ± 0.018	0.0035 ± 0.0078	-0.005 ± 0.017	0.0065 ± 0.015	0.0035 ± 0.005	-0.013 ± 0.0028	-0.0125 ± 0.033
CASM3C:LDLR	-0.032 ± 0.03	0.018 ± 0.025	0.011	0.006 ± 0.0099	0.016 ± 0.016	0.008	0.0495 ± 0.019	0.003 ± 0.042	0.0045 ± 0.011	0.0295 ± 0.015	-0.003 ± 0.018	-0.005 ± 0.0042	0.009 ± 0.024	0.015 ± 0.034	-0.0115 ± 0.0035	0.0155 ± 0.015	-0.014 ± 0.0042	-0.0055 ± 0.0035	0.0155 ± 0.039
HDF3CGF:CD106/VCAM-1	0.02 ± 0.023	-0.0275 ± 0.011	-0.016 ± 0.011	-0.031 ± 0.013	-0.097 ± 0.0057	-0.028 ± 0.021	-0.016 ± 0.017	-0.0335 ± 0.022	-0.0305 ± 0.025	-0.0225 ± 0.044	-0.041 ± 0.018	-0.064 ± 0.013	-0.066 ± 0.013	-0.0075 ± 0.00071	-0.0085 ± 0.016	-0.0035 ± 0.05	0.0105 ± 0.011	0.0165 ± 0.00071	-0.0155 ± 0.0035
CASM3C:Proliferation	-0.036 ± 0.0014	-0.054 ± 0.071	-0.0105 ± 0.029	0.0435 ± 0.013	-0.028 ± 0.027	-0.018 ± 0.027	0.0305 ± 0.013	-0.0115 ± 0.015	-0.0025 ± 0.011	0.0235 ± 0.069	0.012 ± 0.011	-0.016 ± 0.013	0.028 ± 0.088	0.0055 ± 0.0035	-0.0135 ± 0.025	-0.0075 ± 0.0092	0.014 ± 0.014	0.002 ± 0.014	0.0185 ± 0.011
lMphg:CCL3/MIP-1alpha	-0.008 ± 0.034	-0.0125 ± 0.044	0.0215 ± 0.028	0.04 ± 0.0071	0.057 ± 0.0099	-0.019 ± 0.0071	0.0065 ± 0.046	-0.011 ± 0.011	-0.0175 ± 0.0064	0.017 ± 0.045	-0.005	-0.0065 ± 0.0021	0.0195 ± 0.036	-0.036 ± 0.025	-0.045 ± 0.0042	-0.027 ± 0.04	-0.006 ± 0.04	0.0055 ± 0.037	0.045 ± 0.034
lMphg:M-CSF	-0.005 ± 0.042	0.015 ± 0.042	0.015 ± 0.0028	-0.0245 ± 0.023	-0.027 ± 0.034	-0.0315 ± 0.005	0.0015 ± 0.039	-0.0185 ± 0.0035	-0.0285 ± 0.0021	0.002 ± 0.028	-0.008 ± 0.028	-0.0035 ± 0.018	-0.0045 ± 0.013	-0.009	-0.0185 ± 0.015	0.01 ± 0.042	-0.0105 ± 0.033	0.0005 ± 0.011	0.0135 ± 0.022
KF3CT:CD54/ICAM-1	-0.01 ± 0.0042	-0.0175 ± 0.0021	-0.005 ± 0.016	-0.0075 ± 0.005	-0.0045 ± 0.0092	-0.0145 ± 0.00071	-0.002	-0.009 ± 0.0057	-0.0045 ± 0.016	0.006 ± 0.018	-0.0045 ± 0.016	-0.024 ± 0.0014	-0.0365 ± 0.0064	0 ± 0.0057	0.01	0.0065 ± 0.015	-0.0165 ± 0.005	-0.0165 ± 0.0078	-0.013 ± 0.014
KF3CT:MMP-9	-0.0045 ± 0.037	-0.027 ± 0.041	-0.0245 ± 0.00071	-0.0225 ± 0.019	-0.014 ± 0.014	-0.0395 ± 0.028	-0.029 ± 0.018	-0.0375 ± 0.012	-0.0255 ± 0.00071	-0.0105 ± 0.012	-0.05 ± 0.013	0.004 ± 0.0014	0.0475 ± 0.011	-0.0105 ± 0.012	0 ± 0.0042	0.007 ± 0.0085	0.0095 ± 0.0064	0.028 ± 0.0014	0.027 ± 0.0057
HDF3CGF:CD54/ICAM-1	0.0005 ± 0.016	-0.0045 ± 0.026	-0.015 ± 0.0028	-0.037 ± 0.0042	-0.0545 ± 0.013	0.003 ± 0.028	0.0475 ± 0.028	-0.01 ± 0.052	0.017 ± 0.024	-0.0025 ± 0.0064	-0.035 ± 0.042	-0.052 ± 0.021	-0.045 ± 0.02	-0.0095 ± 0.0092	0.0015 ± 0.00071	-0.0085 ± 0.0035	-0.0195 ± 0.00071	-0.0325 ± 0.00071	-0.0345 ± 0.0035
